From patent publication US20230174936A1, “IMMUNOSUPPRESSANT-RESISTANT T-CELLS FOR ADOPTIVE IMMUNOTHERAPY” (CHARITÉ - UNIVERSITÄTSMEDIZIN BERLIN, priority 2020, published 2023)
“Also recorded” adds a separate entry of the source.

B1: sgRNA#2: FKBP12-specific guide RNA targeting SEQ ID NO: 1; full sequence SEQ ID NO: 17 (nucleic acid)
guide: GGGCGCACCUUCCCCAAGCGGUUUUAGAGCUAGAAAUAGCAAGUUAAAAUAAGGCUAGUCCGUUAUCAACUUGAAAAAGUGGCACCGAGUCGGUGC
modifications: synthetic chemically modified sgRNA, pattern not given here

How the values were obtained:
[1] = system: CMV-specific T-cell products; test: CMV-specific stimulation at day 21, intracellular cytokines by flow cytometry; assay type: cell-based, human
Procedure: FIG. 2: Functional profiles of CMV-specific T-cell products with disrupted FKBP12 CMV-specific stimulation of T-cell products at day 21 of culture using antigen-presenting cells (autologous lymphoblastic B-cell lines) pulsed with overlapping peptide pools of CMVIE-1 and CMVpp65 (6 h stimulation). Cytokines were captured in T-cells by addition of Brefeldin A after 1 h of stimulation and cells were stained using a fixation/permeabilization kit and fluorescently 1a-belled antibodies. Data were acquired by multicolor flow cytometry. Immunosuppressants were added where indicated at the following clinically relevant doses: Tac = 6 ng/ml Tacrolimus; CsA ═ 120 ng/ml Cyclosporine A; Tac/Pred/MPA = 6 ng/ml Tacrolimus + 0.57 µg/ml Prednisolone + 2.7 µg/ml Mycophenolic acid. Stars symbolize p-values < 0.05, which were determined by tests for normal distribution (Shapiro-Wilk and Kolmogorov-Smirnov tests), followed by one-way ANOVA (normally distributed data sets) or Friedman test (not normally distributed data sets) and paired t-tests (normally distributed data sets) or Wilcoxon matched pairs signed rank tests (not normally distributed data sets) as posttests. […]

Regulatory T cells = test: Treg expansion in medium with or without calcineurin inhibitors; assay type: cell-based, human; settings: Tac 6 ng/ml
Procedure: Edited and control Treg cells were subsequently expanded in medium with or without different calcineurin inhibitors and subsequently analysed for cell expansion (A) and with flow cytometry (B+C). […] CTLA4 is known to suppress T cells and modulate pro-inflammatory responses by dendritic cells. […] Light bars are untouched expanded Treg, dark bars are FKBP12^k.o.expanded Treg. Tac was used at 6 ng/ml, CsA was used at 125 ng/ml, which corresponds to pharmacological doses that may, e.g., found in patient serum.
FKBP12^KO and control Treg cells were subsequently expanded in medium with or without different calcineurin inhibitors and subsequently analysed for cell expansion (FIG. 11 A) and with flow cytometry (FIG. 11 B+C). […] CTLA4 is known to suppress T cells and modulate pro-inflammatory responses by dendritic cells.

K562 cells = test: NK92 cytotoxicity in co-culture with K562; assay type: cell-based, human; settings: 1:1 with K562, n = 1
Procedure: FIG. 19: Killing efficiency pf FKBP12^KO NK cells NK92 were electroporated with Cas9 protein and sgRNA#1(Table 1). After 5 days they were incubated with K562 cells at a ratio of 1:1. Killing capacity was calculated by the reduction in frequency of K562 cells. n = 1.
We performed a proof-of-principle experiment to confirm feasibility of FKBP12^KO in the NK cell line NK92. Four days prior to the experiment, FKBP12^KO NK92 cells were electroporated with Cas9 + FKBP12 sgRNA#1 (Table 1). NK cell cytotoxicity was assessed by co-culture with the MHC class I deficient erythroleukemia cell line K562. To this end, NK92 and CFSE-labeled K562 cells were mixed at a 1:1 ratio. After a total of 8 hours, the reaction was stopped by washing with cold 1X PBS. The cells were stained with Life Dead UV before fixation and permeabilization (IC Fix/Perm Kit, Thermo Fisher). Fixation was performed for 30 minutes at RT. The stained cells were analyzed with a Cytoflex LX. Analysis was performed with FlowJo v10.

[2] = system: target cells loaded with SARS-CoV-2 peptides

Molecule | proportion of IFNγ-producers ([1]; effect of Tacrolimus on T-cells of CMV-TCPs) | proliferation of untouched Tregs (Regulatory T cells) | killing efficiency in non-edited NK92 cells (K562 cells) | T-cell-mediated cytotoxic killing of target cells [2] | cytokine producers / T-cell function in the presence of Tacrolimus ([1]; 6 ng/ml Tacrolimus, TCPs edited with the named sgRNA)
C=CC[C@@H]1/C=C(\C)C[C@H](C)C[C@H](OC)[C@H]2O[C@@](O)(C(=O)C(=O)N3CCCC[C@H]3C(=O)O[C@H](/C(C)=C/[C@@H]3CC[C@@H](O)[C@H](OC)C3)[C@H](C)[C@@H](O)CC1=O)[C@H](C)C[C@@H]2OC [Tacrolimus] | significantly reduced | reduced the proliferation | decreased killing efficiency | not affected | –
B1 | – | – | – | – | superior function in maintaining T-cell function; also recorded: retained physiological levels of cytokine producers
